Measurements published in patent US20070281046A1, “Method for removing organic contaminants from Chinese herb medicines” (Committee on Chinese Medicine and Pharmacy, Department of …, priority 2006, published 2007).
Marks after values point to notes of the source that are not given here.

Legend:
[1] = Degradation of nine organochlorine pesticides by gamma irradiation in samples of P. quinquefolium (GC analysis); format: physicochemical; details: for remaining concentration of organochlorine pesticides in samples: P. quinquefolium samples, mean of three; for proportion of pesticide degraded: gamma irradiation of P. quinquefolium samples, dose not stated in the sentence (matches 25 kGy of Table 1)
Description: The nine organochlorine pesticides that included Aldrin, Lindane, Heptachlor, Endosulfan-1, Endosulfan-2, o,p′-DDD), p,p′-DDD, p,p′-DDE, and p,p′-DDT were simultaneously prepared in a n-hexane solution. Subsequently, the n-hexane solution that contained the aforesaid organochlorine pesticides was evenly sprayed into samples of P. quinquefolium; the concentration of each of the nine organochlorine pesticides contained in the samples was approximately 0.5 ppm. The samples were cut into pieces with scissors, and then divided into separate packs that weighed 10 g, respectively; the packs were subjected to gamma irradiation of different dosages ranging from 0, 5, 10, 15, 20, and 25 kGy, and followed by the analysis of concentration of the aforesaid organochlorine pesticides. […] Solution was extracted from the samples by using 70% aqueous acetone, and then the extracted solution was subjected to filtration, a decrease in pressure, and condensation in order to remove acetone, followed by the addition of hydrochloric acid and n-hexane to bring the extracted solution to 100 ml, so that the organochlorine pesticides were distributed to the organic layer. Consequently, magnesium silicate was added into the resulted solution in order to depigment and purify it, and once the solution has undergone a decrease in pressure and condensation again for drying, it was brought to 5 ml by adding n-hexane solution to prepare it for gas chromatography (GC) analysis. After undergoing centrifugation, 2 μl of the resulted solution was taken for GC analysis to find out the respective concentration of each of the aforesaid organochlorine pesticides remaining in the samples after receiving various dosages of gamma irradiation.

[2] = Concentration of marker components (ginsenosides) in P. quinquefolium samples after gamma irradiation (HPLC); format: physicochemical; details: for concentration of marker components of P. quinquefolium (ginsenoside): mean ± SD, three repeats; for effect of gamma irradiation on concentration of marker components: 10 kGy and 15 kGy gamma irradiation, P. quinquefolium samples
Protocol: Samples of P. quinquefolium that have respectively received gamma irradiation in dosages of 0, 10, 15, and 20 kGy were analyzed to find out the concentration of marker components therein, with the samples that have not received gamma irradiation as the control group. To extract marker components from the samples for analysis, 10 g of the samples were taken and prepared in 50 ml of 70% aqueous methanol solution, and heated in a convection heater at 60° C. for 15 minutes, followed by centrifugation in order to obtain the extract solution. Subsequently, the residual of the samples were subjected to the above-mentioned procedure again, and the extracted solution from the two rounds of procedures were mixed together and filtered, followed by the addition of 70% aqueous methanol solution to bring the volume up to 100 ml; the resulted solution was then stored at −20° C. and analyzed within 3 days. Before carrying out the analysis of ingredients, an adequate amount of the resulted solution was underwent filtration through a 0.22 μm pore size membrane, and then 20 μl of the solution was injected into a high performance liquid chromatographer for analysis (HPLC, Waters model 2695) each time; the analyses were carried out in combination with UV light—Visible light sensor of Waters model 2487, and a silicon-based reverse phase C-18 column (Cosmosil 5C18-MS-II, 5 μm, 4.6×250 mm, Nacalai Tesque, Inc., Kyoto, Japan) was used for analyzing the marker components of P. quinquefolium in the solution. The marker components of P. quinquefolium tested in the experiment included ginsenoside Rb1, ginsenoside Rg1, ginsenoside Rc, ginsenoside Rd, and ginsenoside Re; the detection wavelength of UV light was 203 ηm. The solution of 15% aqueous phosphoric acid (H3PO4)—acetonitrile (CH3CN) (81:19 to 60:40) was used as the moving phase, and the moving phase was analyzed at 25° C. and 1.0 ml/min of flow velocity after being filtered with a 0.45 μm filtration membrane, so as to measure the concentration of the marker components in samples of P. quinquefolium that received various dosages of gamma irradiation.

[3] = 0 kGy gamma irradiation (control group)

SMILES | remaining concentration of organochlorine pesticides in samples [1, 3] | remaining concentration of organochlorine pesticides in samples ([1]; 5 kGy gamma irradiation) | remaining concentration of organochlorine pesticides in samples ([1]; 10 kGy gamma irradiation) | remaining concentration of organochlorine pesticides in samples ([1]; 15 kGy gamma irradiation) | remaining concentration of organochlorine pesticides in samples ([1]; 20 kGy gamma irradiation) | remaining concentration of organochlorine pesticides in samples ([1]; 25 kGy gamma irradiation) | proportion of pesticide degraded [1] | concentration of marker components of P. quinquefolium (ginsenoside) [2, 3] | effect of gamma irradiation on concentration of marker components [2] | concentration of marker components of P. quinquefolium (ginsenoside) ([2]; 10 kGy gamma irradiation) | concentration of marker components of P. quinquefolium (ginsenoside) ([2]; 15 kGy gamma irradiation) | concentration of marker components of P. quinquefolium (ginsenoside) ([2]; 20 kGy gamma irradiation)
ClC1=C(Cl)C2(Cl)C3C4C=CC(C4)C3C1(Cl)C2(Cl)Cl (stereo not drawn) [Aldrin] | 0.532^a) ppm | 0.376 ppm | 0.279 ppm | 0.218 ppm | 0.168 ppm | 0.123 ppm |  |  |  |  |  | 
O=S1OC[C@@H]2[C@H](CO1)[C@@]1(Cl)C(Cl)=C(Cl)[C@]2(Cl)C1(Cl)Cl (stereo partly drawn) [Endosulfan-1] | 0.519 ppm | 0.392 ppm | 0.311 ppm | 0.251 ppm | 0.192 ppm | 0.140 ppm |  |  |  |  |  | 
O=S1OC[C@@H]2[C@H](CO1)[C@]1(Cl)C(Cl)=C(Cl)[C@]2(Cl)C1(Cl)Cl (stereo partly drawn) [Endosulfan-2] | 0.515 ppm | 0.359 ppm | 0.263 ppm | 0.198 ppm | 0.144 ppm | 0.093 ppm |  |  |  |  |  | 
ClC1=C(Cl)C2(Cl)C3C(Cl)C=CC3C1(Cl)C2(Cl)Cl (stereo not drawn) [Heptachlor] | 0.532 ppm | 0.421 ppm | 0.319 ppm | 0.254 ppm | 0.195 ppm | 0.142 ppm |  |  |  |  |  | 
Cl[C@H]1[C@H](Cl)[C@@H](Cl)[C@@H](Cl)[C@H](Cl)[C@H]1Cl [Lindane] | 0.549 ppm | 0.383 ppm | 0.278 ppm | 0.206 ppm | 0.147 ppm | 0.089 ppm | 84% |  |  |  |  | 
CC(C)=CCC[C@](C)(O[C@@H]1O[C@H](CO[C@@H]2O[C@H](CO)[C@@H](O)[C@H](O)[C@H]2O)[C@@H](O)[C@H](O)[C@H]1O)[C@H]1CC[C@]2(C)[C@@H]1[C@H](O)C[C@@H]1[C@@]3(C)CC[C@H](O[C@@H]4O[C@H](CO)[C@@H](O)[C@H](O)[C@H]4O[C@@H]4O[C@H](CO)[C@@H](O)[C@H](O)[C@H]4O)C(C)(C)[C@@H]3CC[C@]12C [Rb1, ginsenoside Rb1] |  |  |  |  |  |  |  | 31.37 ± 0.15^a) mg/g | would not affect | 31.01 ± 0.11 mg/g | 30.59 ± 0.63 mg/g | 29.39 ± 0.36 mg/g
CC(C)=CCC[C@](C)(O[C@@H]1O[C@H](CO[C@@H]2O[C@@H](CO)[C@H](O)[C@H]2O)[C@@H](O)[C@H](O)[C@H]1O)[C@H]1CC[C@]2(C)[C@@H]1[C@H](O)C[C@@H]1[C@@]3(C)CC[C@H](O[C@@H]4O[C@H](CO)[C@@H](O)[C@H](O)[C@H]4O[C@@H]4O[C@H](CO)[C@@H](O)[C@H](O)[C@H]4O)C(C)(C)[C@@H]3CC[C@]12C [Rc, ginsenoside Rc] |  |  |  |  |  |  |  | 16.12 ± 0.47 mg/g | would not affect | 15.91 ± 0.43 mg/g | 15.08 ± 0.27 mg/g | 14.46 ± 0.28 mg/g
CC(C)=CCC[C@](C)(O[C@@H]1O[C@H](CO)[C@@H](O)[C@H](O)[C@H]1O)[C@H]1CC[C@]2(C)[C@@H]1[C@H](O)C[C@@H]1[C@@]3(C)CC[C@H](O[C@@H]4O[C@H](CO)[C@@H](O)[C@H](O)[C@H]4O[C@@H]4O[C@H](CO)[C@@H](O)[C@H](O)[C@H]4O)C(C)(C)[C@@H]3CC[C@]12C [Rd, ginsenoside Rd] |  |  |  |  |  |  |  | 9.02 ± 0.32 mg/g | would not affect | 8.77 ± 0.15 mg/g | 8.44 ± 0.25 mg/g | 8.20 ± 0.17 mg/g
CC(C)=CCC[C@](C)(O[C@@H]1O[C@H](CO)[C@@H](O)[C@H](O)[C@H]1O)[C@H]1CC[C@]2(C)[C@@H]1[C@H](O)C[C@@H]1[C@@]3(C)CC[C@H](O)C(C)(C)[C@@H]3[C@@H](O[C@@H]3O[C@H](CO)[C@@H](O)[C@H](O)[C@H]3O[C@@H]3O[C@@H](C)[C@H](O)[C@@H](O)[C@H]3O)C[C@]12C [Re, ginsenoside Re] |  |  |  |  |  |  |  | 15.98 ± 0.50 mg/g | would not affect | 15.79 ± 0.21 mg/g | 15.04 ± 0.33 mg/g | 14.53 ± 0.14 mg/g
CC(C)=CCC[C@](C)(O[C@@H]1O[C@H](CO)[C@@H](O)[C@H](O)[C@H]1O)[C@H]1CC[C@]2(C)[C@@H]1[C@H](O)C[C@@H]1[C@@]3(C)CC[C@H](O)C(C)(C)[C@@H]3[C@@H](O[C@@H]3O[C@H](CO)[C@@H](O)[C@H](O)[C@H]3O)C[C@]12C [Rg1, ginsenoside Rg1] |  |  |  |  |  |  |  | 1.56 ± 0.09 mg/g | would not affect | 1.56 ± 0.06 mg/g | 1.47 ± 0.03 mg/g | 1.43 ± 0.02 mg/g
Clc1ccc(C(c2ccccc2Cl)C(Cl)Cl)cc1 (stereo not drawn) [o,p′-DDD] | 0.476 ppm | 0.337 ppm | 0.250 ppm | 0.196 ppm | 0.155 ppm | 0.119 ppm |  |  |  |  |  | 
Clc1ccc(C(c2ccc(Cl)cc2)C(Cl)Cl)cc1 [p,p′-DDD] | 0.502 ppm | 0.370 ppm | 0.282 ppm | 0.227 ppm | 0.179 ppm | 0.147 ppm |  |  |  |  |  | 
ClC(Cl)=C(c1ccc(Cl)cc1)c1ccc(Cl)cc1 [p,p′-DDE] | 0.544 ppm | 0.404 ppm | 0.313 ppm | 0.249 ppm | 0.195 ppm | 0.145 ppm |  |  |  |  |  | 
Clc1ccc(C(c2ccc(Cl)cc2)C(Cl)(Cl)Cl)cc1 [p,p′-DDT] | 0.520 ppm | 0.344 ppm | 0.242 ppm | 0.178 ppm | 0.127 ppm | 0.082 ppm | 84% |  |  |  |  | 
